Laboratory results taken from PubChem BioAssay (NCI).
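Five compound concentrations were applied to cells in 96-well plates for 48 hours; endpoints were derived by simple linear interpolation of the resulting dose-response curve. Abbreviation: GI50, concentration required for 50% inhibition of growth. The concentration for full growth arrest is given as TGI.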

Experiments:
Assay in all cases: NCI anticancer screen, dose series, 48 h
HCC-2998 colon = test system: HCC-2998 colon
NCI-H460 lung = test system: NCI-H460 lung
HOP-92 NSCLC = test system: HOP-92 NSCLC
HCT-116 colon = test system: HCT-116 colon
M14 melanoma = test system: M14 melanoma
MDA-MB-435 = test system: MDA-MB-435
HL-60(TB) leukemia = test system: HL-60(TB) leukemia
SW-620 colon = test system: SW-620 colon
BT-549 breast = test system: BT-549 breast
KM12 colon = test system: KM12 colon

| SMILES | GI50 (HCC-2998 colon) [µM] | TGI (HCC-2998 colon) [µM] | GI50 (NCI-H460 lung) [µM] | TGI (NCI-H460 lung) [µM] | GI50 (HOP-92 NSCLC) [µM] | TGI (HOP-92 NSCLC) [µM] | GI50 (HCT-116 colon) [µM] | TGI (HCT-116 colon) [µM] | GI50 (M14 melanoma) [µM] | TGI (M14 melanoma) [µM] | GI50 (MDA-MB-435) [µM] | TGI (MDA-MB-435) [µM] | GI50 (HL-60(TB) leukemia) [µM] | TGI (HL-60(TB) leukemia) [µM] | GI50 (SW-620 colon) [µM] | TGI (SW-620 colon) [µM] | GI50 (BT-549 breast) [µM] | TGI (BT-549 breast) [µM] | GI50 (KM12 colon) [µM] | TGI (KM12 colon) [µM] |
| --- | --- | --- | --- | --- | --- | --- | --- | --- | --- | --- | --- | --- | --- | --- | --- | --- | --- | --- | --- | --- |
| Cc1cc(N(CCCl)CCCl)ccc1/C=N\NC(=O)c1cccnc1 | 25 | 97.6 | 0.685 | 23.3 | 17.3 | 59.3 | 26.9 | > 100 | 34.4 | > 100 | 24.6 | > 100 | 4.3 | 26.4 | 30.3 | > 100 | 19.4 | 61.6 | 34.4 | > 100 |
| CCOC(=O)C1(NC(=O)OC(C)(C)C)CCc2[nH]oc(=O)c2C1 (stereo unspecified) |  | > 100 |  | > 100 |  | > 100 |  | > 100 |  | > 100 |  | > 100 |  | > 100 |  | > 100 |  | > 100 |  | > 100 |
| CCOC(=O)c1ccc(-c2cccs2)[nH]1 |  | > 100 |  | > 100 |  | > 76.5 |  | > 100 |  | > 100 |  | > 100 |  | > 100 |  | > 100 |  | > 100 |  | > 100 |
| COc1ccc(/[N+]([O-])=C/c2ccccc2OC(=S)S)cc1 |  | > 100 |  | > 100 |  | 64.4 |  | 73.5 |  | 91.5 |  | 55.7 |  | 70.8 |  | > 100 |  | 66.6 |  | > 100 |
| CO/C(N)=C(\C#N)N=Cc1cccs1 |  | > 100 |  | > 100 |  | > 100 |  | > 100 |  | > 100 |  | 73.3 |  | 65.4 |  | > 100 |  | > 100 |  | > 100 |
| COc1ccc(NC(=S)Nc2cccc(C)n2)cc1 |  | > 100 |  | > 100 |  | > 100 |  | > 100 |  | > 100 |  | > 100 |  | > 100 |  | > 100 |  | > 100 |  | > 100 |
| NNC(=O)COc1nc(-c2cccs2)nc2ccc(I)cc12 |  | 63.9 |  | 70.4 |  | 61.8 |  | 36.3 |  | 58.3 |  | 47 | 37.9 | > 100 |  | > 100 |  | 38.9 |  | 41.5 |
| N#Cc1c(N)n(-c2nc3ccccc3s2)c(=O)c2cc([N+](=O)[O-])ccc12 |  | 41.2 |  | > 65.8 |  | 42.3 |  | > 41.9 |  | > 55 |  | > 69.1 |  | 24.9 |  | > 100 |  | > 62.7 |  | > 51.3 |
| Nc1c(/C=C/c2cc3cc(C4=NCCN4)ccc3o2)[nH]c2cc(C3=NCCN3)ccc12 |  | > 100 |  | > 100 |  | > 100 |  | > 100 |  | > 100 |  | > 100 |  | > 100 |  | > 100 |  | > 100 |  | > 100 |
| CN1Cc2c(ccc3c2OCO3)[C@@H]2[C@H](O)Cc3cc4c(cc3[C@@H]21)OCO4 |  | 4.49 |  | > 100 |  | > 100 |  | > 44.7 |  | > 28.4 |  | 2.53 |  | 4.36 |  | > 100 |  | > 100 |  | 12.4 |
| O=C(NCc1ccc(Cl)c(Cl)c1)c1nc2ccccc2nc1NCc1ccc(Cl)c(Cl)c1 |  | > 100 |  | > 100 |  | > 100 |  | > 100 |  | > 100 |  | > 100 |  | > 100 |  | > 100 |  | > 100 |  | > 100 |
| CC(C)=C[C@@H]1C[C@H](C)[C@H]2CC[C@H](C)[C@H]3C(=O)C(O)=C(C)C(=O)[C@]123 |  | > 100 |  | > 100 |  | > 100 |  | > 100 |  | > 100 |  | > 100 |  | > 100 |  | > 100 |  | > 100 |  | > 100 |
| Nc1nc(Nc2cc(F)c(Cl)c(F)c2)cc(=O)[nH]1 |  | 61.5 |  | > 100 |  | > 100 |  | > 100 |  | > 100 |  | > 100 |  | > 100 |  | > 100 |  | > 100 |  | > 100 |
| COc1c(-c2nc3nc(N4CCN(C)CC4)ccc3[nH]2)cc(OC)c2c1nc(CCl)n2C |  | 31.2 |  | 52.8 |  | 41.9 |  | > 100 |  | 33.7 |  | 38.2 |  | 53.5 |  | 64.3 |  | 40.4 |  | 30.8 |
